Calls of active or inactive are those of the source. No rule for the calls is given here.
Tested on: CCRIS mutagenicity, Ames/micronucleus/aberration tests
Assay: CCRIS mutagenicity studies
[1] = Test System: AMES SALMONELLA TYPHIMURIUM, Strain/Indicator: TA98, Metabolic Activation: NONE, Method: PREINCUBATION
[2] = Test System: AMES SALMONELLA TYPHIMURIUM, Strain/Indicator: TA1535, Metabolic Activation: NONE, Method: STANDARD PLATE
[3] = Test System: AMES SALMONELLA TYPHIMURIUM, Strain/Indicator: TA98, Metabolic Activation: NONE, Method: STANDARD PLATE
[4] = Test System: AMES SALMONELLA TYPHIMURIUM, Strain/Indicator: TA98, Metabolic Activation: RAT, LIVER, S-9, AROCLOR 1254, Method: STANDARD PLATE
[5] = Test System: AMES SALMONELLA TYPHIMURIUM, Strain/Indicator: TA100, Metabolic Activation: NONE, Method: STANDARD PLATE
[6] = Test System: AMES SALMONELLA TYPHIMURIUM, Strain/Indicator: TA100, Metabolic Activation: RAT, LIVER, S-9, AROCLOR 1254, Method: STANDARD PLATE

Measured: mutagenic call

CC(=O)Nc1ccc(Nc2ccc([N+](=O)[O-])cc2)cc1
inactive: Test System: AMES SALMONELLA TYPHIMURIUM, Strain/Indicator: TA98(NR), Metabolic Activation: NONE, Method: PREINCUBATION inactive; negative
active: [1] active; positive | Test System: AMES SALMONELLA TYPHIMURIUM, Strain/Indicator: TA98, Metabolic Activation: RAT, LIVER, S-9, AROCLOR 1254, Method: PREINCUBATION active; positive

Nc1nc(-c2ccccc2)c(Br)c(=O)[nH]1
inactive: Test System: MOUSE LYMPHOMA, Strain/Indicator: L5178Y (TK+/TK-), Metabolic Activation: NONE, Method: SUSPENSION/PLATE inactive; negative | Test System: MOUSE LYMPHOMA, Strain/Indicator: L5178Y (TK+/TK-), Metabolic Activation: RAT, LIVER, S-9, AROCLOR 1254, Method: SUSPENSION/PLATE inactive; negative
active: Test System: CHINESE HAMSTER OVARY, Strain/Indicator: CHO (HGPRT), Metabolic Activation: RAT, LIVER, S-9, AROCLOR 1254 active; positive

O=C/C(Cl)=C(/Cl)C(=O)O
active: [2] active; positive | Test System: CHINESE HAMSTER OVARY, Strain/Indicator: CHO-KTL3 (HPRT)/6-THIOGUANINE, Metabolic Activation: NONE active; positive

CC1(C)[C@@H]2CC[C@@]1(C)C(=O)C2=O
inactive: Test System: AMES SALMONELLA TYPHIMURIUM, Strain/Indicator: TA97A, Metabolic Activation: NONE, Method: STANDARD PLATE inactive; negative | Test System: AMES SALMONELLA TYPHIMURIUM, Strain/Indicator: TA97A, Metabolic Activation: RAT LIVER S-9, AROCLOR 1254, Method: STANDARD PLATE inactive; negative | Test System: AMES SALMONELLA TYPHIMURIUM, Strain/Indicator: TA98, Metabolic Activation: HAMSTER, LIVER, S-9, AROCLOR 1254, Method: STANDARD PLATE inactive; negative | [3] inactive; negative | Test System: AMES SALMONELLA TYPHIMURIUM, Strain/Indicator: TA98, Metabolic Activation: RAT LIVER S-9, AROCLOR 1254, Method: STANDARD PLATE inactive; negative | [4] inactive; negative | Test System: AMES SALMONELLA TYPHIMURIUM, Strain/Indicator: TA100, Metabolic Activation: HAMSTER, LIVER, S-9, AROCLOR 1254, Method: STANDARD PLATE inactive; negative | [5] inactive; negative | Test System: AMES SALMONELLA TYPHIMURIUM, Strain/Indicator: TA100, Metabolic Activation: RAT LIVER S-9, AROCLOR 1254, Method: STANDARD PLATE inactive; negative | [6] inactive; negative | Test System: AMES SALMONELLA TYPHIMURIUM, Strain/Indicator: TA102, Metabolic Activation: NONE, Method: STANDARD PLATE inactive; negative | Test System: AMES SALMONELLA TYPHIMURIUM, Strain/Indicator: TA102, Metabolic Activation: RAT LIVER S-9, AROCLOR 1254, Method: STANDARD PLATE inactive; negative | Test System: AMES SALMONELLA TYPHIMURIUM, Strain/Indicator: TA1535, Metabolic Activation: HAMSTER, LIVER, S-9, AROCLOR 1254, Method: STANDARD PLATE inactive; negative | [2] inactive; negative | Test System: AMES SALMONELLA TYPHIMURIUM, Strain/Indicator: TA1535, Metabolic Activation: RAT, LIVER, S-9, AROCLOR 1254, Method: STANDARD PLATE inactive; negative | Test System: AMES SALMONELLA TYPHIMURIUM, Strain/Indicator: TA1537, Metabolic Activation: HAMSTER, LIVER, S-9, AROCLOR 1254, Method: STANDARD PLATE inactive; negative | Test System: AMES SALMONELLA TYPHIMURIUM, Strain/Indicator: TA1537, Metabolic Activation: NONE, Method: STANDARD PLATE inactive; negative | Test System: AMES SALMONELLA TYPHIMURIUM, Strain/Indicator: TA1537, Metabolic Activation: RAT, LIVER, S-9, AROCLOR 1254, Method: STANDARD PLATE inactive; negative | Test System: AMES SALMONELLA TYPHIMURIUM, Strain/Indicator: TA1538, Metabolic Activation: HAMSTER, LIVER, S-9, AROCLOR 1254, Method: STANDARD PLATE inactive; negative | Test System: AMES SALMONELLA TYPHIMURIUM, Strain/Indicator: TA1538, Metabolic Activation: NONE, Method: STANDARD PLATE inactive; negative | Test System: AMES SALMONELLA TYPHIMURIUM, Strain/Indicator: TA1538, Metabolic Activation: RAT, LIVER, S-9, AROCLOR 1254, Method: STANDARD PLATE inactive; negative | Test System: Mouse lymphoma, Strain/Indicator: L5178Y (tk+/tk-), Metabolic Activation: Rat, Liver, S-9, Aroclor 1254, Method: Suspension/plate inactive; negative
active: Test System: Mouse lymphoma, Strain/Indicator: L5178Y (tk+/tk-), Metabolic Activation: None, Method: Suspension/plate active; positive

COc1cc([N+](=O)[O-])c(O)c(C(C)(C)C)c1
inactive: [3] inactive; negative | [4] inactive; negative | [5] inactive; negative | [6] inactive; negative

Oc1ccc(Cl)cc1Cc1cc(Cl)ccc1O
inactive: Test System: AMES SALMONELLA TYPHIMURIUM, Strain/Indicator: TA98, Metabolic Activation: HAMSTER, LIVER, S-9, AROCLOR 1254 (30%), Method: PREINCUBATION inactive; negative | [1] inactive; negative | Test System: AMES SALMONELLA TYPHIMURIUM, Strain/Indicator: TA98, Metabolic Activation: RAT, LIVER, S-9, AROCLOR 1254 (30%), Method: PREINCUBATION inactive; negative | Test System: AMES SALMONELLA TYPHIMURIUM, Strain/Indicator: TA100, Metabolic Activation: NONE, Method: PREINCUBATION inactive; negative | Test System: AMES SALMONELLA TYPHIMURIUM, Strain/Indicator: TA1535, Metabolic Activation: HAMSTER, LIVER, S-9, AROCLOR 1254 (30%), Method: PREINCUBATION inactive; negative

CC(C)(C)c1ccc(C(=O)O)cc1
inactive: Test System: Ames Salmonella typhimurium, Strain/Indicator: TA98, Metabolic Activation: None, Method: Preincubation inactive; negative | Test System: Ames Salmonella typhimurium, Strain/Indicator: TA98, Metabolic Activation: Rat, Liver, S9, Sodium phenobarbital and 5,6-benzoflavone (10%), Method: Preincubation inactive; negative | Test System: Ames Salmonella typhimurium, Strain/Indicator: TA100, Metabolic Activation: None, Method: Preincubation inactive; negative | Test System: Ames Salmonella typhimurium, Strain/Indicator: TA100, Metabolic Activation: Rat, Liver, S9, Sodium phenobarbital and 5,6-benzoflavone (10%), Method: Preincubation inactive; negative | Test System: Ames Salmonella typhimurium, Strain/Indicator: TA1535, Metabolic Activation: None, Method: Preincubation inactive; negative | Test System: Ames Salmonella typhimurium, Strain/Indicator: TA1535, Metabolic Activation: Rat, Liver, S9, Sodium phenobarbital and 5,6-benzoflavone (10%), Method: Preincubation inactive; negative | Test System: Ames Salmonella typhimurium, Strain/Indicator: TA1537, Metabolic Activation: None, Method: Preincubation inactive; negative | Test System: Ames Salmonella typhimurium, Strain/Indicator: TA1537, Metabolic Activation: Rat, Liver, S9, Sodium phenobarbital and 5,6-benzoflavone (10%), Method: Preincubation inactive; negative | Test System: E. coli, Strain/Indicator: WP2uvrA/pKM101, Metabolic Activation: None, Method: Preincubation inactive; negative | Test System: E. coli, Strain/Indicator: WP2uvrA/pKM101, Metabolic Activation: Rat, Liver, S9, Sodium phenobarbital and 5,6-benzoflavone (10%), Method: Preincubation inactive; negative

Reference: PubChem BioAssay AID1259407 (Chemical Carcinogenesis Research Information System (CCRIS), 2018)
